Consider one compound from US6638938B1, “Method for preventing tissue injury from hypoxia” (Cell Therapeutics, Inc., priority 1993, dated 2003).

The test system of assay [1] is mRNA for IL-1β, IL-6, TNFα and IFN-γ. Kind of assay: cytokine mRNA by PCR in murine hemorrhage and resuscitation model. The format is in vivo, Balb/C mice. The protocol:
This example illustrates a study of Lisofylline in a murine hemorrhage and resuscitation model. Male Balb/C mice, 8-12 weeks of age, were obtained from Harlan-Sprague Dawley (Indianapolis, Ind.). The animals were kept on a 12 hour light/dark cycle with free access to food and water. With this model, 30% of the calculated blood volume (approximately 0.55 ml for a 20 gram mouse) was withdrawn from a methoxyflurane anesthetized mouse by cardiac puncture over a 60-second period. The blood was collected into a heparinized syringe (5 units heparin), kept at 37° C. for one hour, then reinfused into the mouse through a retroorbital plexus injection. Using this method, one is able to resuscitate all hemorrhaged mice without complication. The total period of methoxyflurane anesthesia is less than 2 minutes in all cases. The mortality rate with this hemorrhage protocol is approximately 12%, with all deaths occurring over the 24 hours post hemorrhage, and most deaths occurring within the one hour post hemorrhage.
Mice were treated with 100 mg/kg Lisofylline in 0.2 ml PBS and given initially i.v., by retroorbital injection, then i.p. every 8 hours for a total of 9 doses. In hemorrhaged mice, the Lisofylline in PBS was added to the shed blood, and then given retroorbitally with the blood during the resuscitation phase. In hemorrhaged Balb/C mice (n=3), sacrificed by exsanguination 5 minutes after receiving Lisofylline with the blood used for resuscitation, serum levels of Lisofylline were 44±6 μg/ml.
Intraparenchymal pulmonary mononuclear cells were isolated by collagenase digestion and Percoll® gradient purification using techniques previously described. Briefly, after the mouse was killed by cervical dislocation or exsanguination, the chest was opened and the lung vascular bed was flushed by injecting 3-5 ml of chilled (4° C.) PBS into the right ventricle. The lungs were then excised, avoiding the paratracheal lymph nodes, and washed twice in RPMI 1640. The lungs were minced finely, and the tissue pieces placed in RPMI 1640 with 5% FCS, penicillin/streptomycin, 10 mM HEPES, 50 μM 2-ME, 20 mM L-glutamine, containing 20 U/ml collagenase and 1 μg/ml DNase. Following incubation for 60 minutes at 37° C., any remaining intact tissue was disrupted by passage through a 21 gauge needle. Tissue fragments and the majority of dead cells were removed by rapid filtration through a glass wool column, and cells collected by centrifugation. The cell pellet was suspended in 4 ml of 80% Percoll® (Pharmacia, Uppsala, Sweden) and 4 ml of 40% Percoll® was then layered on. After centrifugation at 600 g for 20 minutes at 15° C., the cells at the interface were collected, washed in RPMI 1640, and counted. Viability, as determined by trypan blue exclusion, was consistently greater than 98%.
Peripheral blood mononuclear cells were isolated from heparinized blood which had been diluted 2:1 with PBS, pH 7.3, and layered onto a gradient containing 4 ml Lympholyte M (Accurate Chemicals, San Diego, Calif.). After centrifugation at 600 g for 20 minutes at 15° C., the cells at the interface were collected, washed in RPMI 1640, and counted. Viability, as determined by trypan blue exclusion, was consistently greater than 98%. Plasma was collected following centrifugation of bloodto whichhad beenadded 10^−3 M EDTA.
mRNA was isolated using oligo dT cellulose minicolumns (Invitrogen San Diego, Calif.). cDNA was synthesized from the mRNA of 100,000 cells for all cell populations except alveolar macrophages (where 20,000 cells were used) using Moloney murine leukemia virus reverse transcriptase and random hexamer oligonucleotides according to the procedure of Kawasaki (PCR Protocols: A Guide to Methods and Applications, Innis et al., eds, pp. 21-27, Academic Press, New York, 1991). […]

The next assay relates to human neutrophils. Kind of assay: neutrophil superoxide anion production (cytochrome c reduction). The format is cell-based. The text has this:
Human recombinant interleukin-1α (IL-1) was obtained from Hoffmann-LaRoche, Inc. (Nutley, N.J.), frozen inaliquots and thawed daily for use. Ketamine hydrochloride was obtained from Parke-Davis (Morris Plains, N.J.), xylazine from Haver (New York, N.J.), ^125I labeled bovine serum albumin (BSA) from ICN Radiochemicals (Irvine, Calif.), and heparin sodium from Elkins-Sinn, Inc. (Cherry Hill, N.J.). All other reagents were purchased from Sigma Chemical Co. (St. Louis, Mo.). Neutrophils were purified from human blood by well described methods. Venous blood was anticoagulated with heparin and the cellular elements were separated from platelet-rich plasma by centrifugation. Cell pellets were resuspended in platelet-poor plasma and diluted 1:4 with 6% dextran (Pharmacia Fine Chemicals, Piscataway, N.J.) in saline. Red cells were separated from leukocytes by sedimentation. Leukocyte-rich supernatants were then aspirated, underlain with Ficoll-Hypaque (Pharmacia Fine Chemicals), and centrifuged at 275×g to separate neutrophils and monocytes. Sedimented neutrophils were resuspended in Hank's balanced salt solution (HBSS). These preparations contained 94 to 96% neutrophils and 4 to 6% monocytes. All values were compared by analysis of variance and corrected by post hoc Student t tests for differences between groups. A p value of <0.05 was considered significant.
Release of superoxide anion by neutrophils was determined spectrophotometrically by measuring superoxide dismutase (SOD) inhibitable reduction of horse heart ferricytochrome C (Sigma Chemical Co., St. Louis, Mo.). Briefly, neutrophils (2×10^6) were placed in tubes containing HBSS (sufficient quantity to 2.0 ml), pooled human serum (1%), and SOD (2.98 mg) with and without Lisofylline. These mixtures were divided in half, and one part was incubated at 37° C. and one part at 4° C. After incubation, reaction mixtures were kept at 4° C. and centrifuged at 800×g for 15 min. Absorbance for paired supernatants was measured at 550 nm using a spectrophotometer (Model 35; Beckman Instruments, Inc., Fullerton, Calif.), averaged, and expressed at nanomoles of SOD-inhibitable cytochrome C reduced/20 min. In some experiments, neutrophils were incubated with PMA.
Neutrophil chemotactic activity was determined by Boyden chamber assay and quantitated as the number of migrating PMN/5HPF using zymosan-activated serum (ZAS) as the chemoattractant (Repine et al., J. Reticuloendo. Soc. 24:217, 1978). Neutrophil adherence was assessed by quantitating the percentage of neutrophils adhering to nylon fibers following addition of phorbol myristate acetate (PMA 10-^6M, Sigma) (Rasp et al., J. Reticuloendo. Soc. 25:101, 1979). Neutrophil superoxide production was determined by quantitating superoxide dismutase inhibitable reduction of cytochrome c in response to PMA (10^−6 M) (Berger et al., J. Infectious Dis. 149:413, 1984).

Take `C[C@@H](O)CCCCn1c(=O)c2c(ncn2C)n(C)c1=O` [Lisofylline, 1-R-(5-hydroxyhexyl)-3,7-dimethylxanthine]: in assay [1] (determined by PCR, following hemorrhage and resuscitation), the “murine lung cytokine levels (FIG. 5)” value is recorded as “significantly decreased”. Also, in assay [1] (following hemorrhage shock in mice, model of ARDS), the “lung cytokine concentrations (FIG. 7)” value is on record as “significantly decreased”. Besides, the “TNFα mRNA levels in PBMC” value in assay [1] (hemorrhage/resuscitated mice treated, versus untreated, 3 days) was “significantly decreased”. Besides, in assay [1] (hemorrhaged/resuscitated mice treated, versus normal untreated or normal treated mice), the “amounts of mRNA for IL-1β and TNF among cells isolated from BAL samples” value is given as “not different”. In addition, the “levels of mRNA for IL-1β, IL-6, TNFα and IFN-γ among intraparenchymal pulmonary mononuclear cells” value in assay [1] (hemorrhaged/resuscitated mice treated, versus untreated, 3 days) is “significantly decreased”. The “mRNA levels in PBMC for IL-1β, IL-6, TNFα and IFN-γ” value in assay [1] (treatment after hemorrhage) is “did not affect”. In addition, the “Neutrophil Superoxide Production in vitro” value with human neutrophils (Neutrophils + PMA + Lisofylline 0.7 μM) was 9.2 ± 7.8 (4) μM cyto c reduced/30 min; in the assay on human neutrophils (Neutrophils + PMA + Lisofylline 7 μM), 82.3 ± 5.2 (4) μM cyto c reduced/30 min; with human neutrophils (Neutrophils + PMA + Lisofylline 70 μM), 80.6 ± 5.2 (4) μM cyto c reduced/30 min; in the assay with human neutrophils (Neutrophils + PMA + Lisofylline 700 μM), 92.0 ± 1.1 (4) μM cyto c reduced/30 min. The “neutrophil superoxide anion generation” value in the assay with human neutrophils (PMA 10^-6 M, in vitro, whether reduced) is listed as “not”.
